In brackets after ≈: the same amount, converted by molar mass.
Experiments:
[1] = system: Bacteroides thetaiotaomicron; format: cell-based; conditions: Bacteroides thetaiotaomicron 1438; Table 14
From the text: (§1) The agar-dilution procedure described by the International Collaborative study (ICS) group was used to determine the minimum inhibitory concentrations (MIC's).

S. pyogenes = assay: experimental bacterial infection in mice; format: in vivo
[2] = system: Peptostreptococcus anaerobius; assay: agar-dilution MIC; format: cell-based
Peptococcus prevoti = assay: agar-dilution MIC; format: cell-based
Clostridium perfringens = format: cell-based; conditions: Clostridium perfringens 81; Table 14
Bacteroides fragilis = assay: agar-dilution MIC; format: cell-based
From the text: as §1

Streptococcus pyogenes = assay: agar-dilution MIC; format: cell-based
From the text: as §1

[3] = system: Streptococcus sp. (Group D); assay: agar-dilution MIC; format: cell-based
From the text: as §1

Streptococcus pneumoniae = assay: agar-dilution MIC; format: cell-based
From the text: as §1

[4] = system: Staphylococcus epidermidis; assay: agar-dilution MIC; format: cell-based
From the text: as §1

## NC1C(=O)NC2Cc3ccc(c(Cl)c3)Oc3cc4cc(c3O)Oc3ccc(cc3Cl)C(O)C3NC(=O)C(NC(=O)C4NC(=O)C(NC2=O)c2cc(O)cc(c2)Oc2cc1ccc2O)c1cc(Cl)c(O)c(c1)-c1c(O)cc(O)cc1C(C(=O)O)NC3=O (stereo not drawn) [A41030 factor A]
[1]
  MIC: 64 µg/mL (≈ 51.9 µM)
S. pyogenes; S. pyogenes infection in mice, two doses subcutaneously
  ED50: 2.8 mg/kg
S. pyogenes; against S. pyogenes in mice, oral
  in vivo oral activity: > 300 mg./kg. X 2
[2]; Peptostreptococcus anaerobius 1428, Table 14
  MIC: ≤ 0.25 µg/mL
[2]; Ps. anaerobius 8, Table 15
  MIC: 0.5 µg/mL (≈ 0.405 µM)
[2]; Ps. anaerobius 52, Table 15
  MIC: 0.5 µg/mL (≈ 0.405 µM)
[2]; Ps. anaerobius 59, Table 15
  MIC: 0.5 µg/mL (≈ 0.405 µM)
[2]; Ps. anaerobius 1418, Table 15
  MIC: ≤ 0.03 µg/mL
[2]; Ps. anaerobius 1428, Table 15
  MIC: 0.5 µg/mL (≈ 0.405 µM)
[2]; Ps. anaerobius 1451, Table 15
  MIC: 0.5 µg/mL (≈ 0.405 µM)
[2]; Ps. anaerobius 1477, Table 15
  MIC: 0.5 µg/mL (≈ 0.405 µM)
Peptococcus prevoti; Pc. prevoti 1281, Table 15
  MIC: 0.5 µg/mL (≈ 0.405 µM)
Peptococcus prevoti; Peptococcus prevoti 1281, Table 14
  MIC: ≤ 0.25 µg/mL
Clostridium perfringens
  MIC: 0.5 µg/mL (≈ 0.405 µM)
Bacteroides fragilis; B. fragilis 2, 24-hour, Table 12
  MIC: 64 µg/mL (≈ 51.9 µM)
Bacteroides fragilis; B. fragilis 9, 24-hour, Table 12
  MIC: 64 µg/mL (≈ 51.9 µM)
Bacteroides fragilis; B. fragilis 103, 24-hour, Table 12
  MIC: 32 µg/mL (≈ 25.9 µM)
Bacteroides fragilis; B. fragilis 104, 24-hour, Table 12
  MIC: 32 µg/mL (≈ 25.9 µM)
Bacteroides fragilis; B. fragilis 106, 24-hour, Table 12
  MIC: 64 µg/mL (≈ 51.9 µM)
Bacteroides fragilis; B. fragilis 107, 24-hour, Table 12
  MIC: 32 µg/mL (≈ 25.9 µM)
Bacteroides fragilis; B. fragilis 108, 24-hour, Table 12
  MIC: 32 µg/mL (≈ 25.9 µM)
Bacteroides fragilis; B. fragilis 110, 24-hour, Table 12
  MIC: 64 µg/mL (≈ 51.9 µM)
Bacteroides fragilis; B. fragilis 111, 24-hour, Table 12
  MIC: 32 µg/mL (≈ 25.9 µM)
Bacteroides fragilis; B. fragilis 112, 24-hour, Table 12
  MIC: 64 µg/mL (≈ 51.9 µM)
Bacteroides fragilis; B. fragilis 113, 24-hour, Table 12
  MIC: 32 µg/mL (≈ 25.9 µM)
Bacteroides fragilis; B. fragilis 1451, 24-hour, Table 12
  MIC: 64 µg/mL (≈ 51.9 µM)
Bacteroides fragilis; B. fragilis 1470, 24-hour, Table 12
  MIC: 64 µg/mL (≈ 51.9 µM)
Bacteroides fragilis; B. fragilis 1877, 24-hour, Table 12
  MIC: 32 µg/mL (≈ 25.9 µM)
Bacteroides fragilis; B. fragilis 9032, 24-hour, Table 12
  MIC: 64 µg/mL (≈ 51.9 µM)
Bacteroides fragilis; Bacteroides fragilis 1877, Table 14
  MIC: 32 µg/mL (≈ 25.9 µM)
Bacteroides fragilis; Bacteroides fragilis 1936B, Table 14
  MIC: 64 µg/mL (≈ 51.9 µM)
Streptococcus pyogenes; Streptococcus pyogenes 9943, Table 11
  MIC: 0.25 µg/mL (≈ 0.203 µM)
Streptococcus pyogenes; Streptococcus pyogenes 10389, Table 11
  MIC: 0.25 µg/mL (≈ 0.203 µM)
Streptococcus pyogenes; Streptococcus pyogenes 12344, Table 11
  MIC: 0.5 µg/mL (≈ 0.405 µM)
Streptococcus pyogenes; Streptococcus pyogenes C203, Table 11
  MIC: 0.25 µg/mL (≈ 0.203 µM)
Streptococcus pyogenes; Streptococcus pyogenes C203, Table 17
  MIC: 0.5 µg/mL (≈ 0.405 µM)
Streptococcus pyogenes; Streptococcus pyogenes C203, end point after 24 hours, Table 18
  MIC: 0.25 µg/mL (≈ 0.203 µM)
Streptococcus pyogenes; Streptococcus pyogenes M-6517, Table 11
  MIC: 0.25 µg/mL (≈ 0.203 µM)
[3]; Streptococcus sp. (Group D) 238, Table 11
  MIC: 0.25 µg/mL (≈ 0.203 µM)
[3]; Streptococcus sp. (Group D) 282, Table 11
  MIC: 0.25 µg/mL (≈ 0.203 µM)
[3]; Streptococcus sp. (Group D) 9901, Table 11
  MIC: 0.25 µg/mL (≈ 0.203 µM)
[3]; Streptococcus sp. (Group D) 12253F, Table 11
  MIC: 0.25 µg/mL (≈ 0.203 µM)
[3]; Streptococcus sp. (Group D) Guze, Table 11
  MIC: 0.25 µg/mL (≈ 0.203 µM)
[3]; Streptococcus sp. Group D 2041, end point after 24 hours, Table 18
  MIC: 0.5 µg/mL (≈ 0.405 µM)
[3]; Streptococcus sp. Group D 2058, end point after 24 hours, Table 18
  MIC: 0.5 µg/mL (≈ 0.405 µM)
[3]; Streptococcus sp. Group D 8043, end point after 24 hours, Table 18
  MIC: 0.25 µg/mL (≈ 0.203 µM)
[3]; Streptococcus sp. Group D 9901, end point after 24 hours, Table 18
  MIC: 1 µg/mL (≈ 0.811 µM)
[3]; Streptococcus sp. Group D 9960, Table 17
  MIC: 2 µg/mL (≈ 1.62 µM)
[3]; Streptococcus sp. Group D 9960, end point after 24 hours, Table 18
  MIC: 0.5 µg/mL (≈ 0.405 µM)
[3]; Streptococcus sp. Group D 12253F, end point after 24 hours, Table 18
  MIC: 0.25 µg/mL (≈ 0.203 µM)
[3]; Streptococcus sp. Group D Mx161, end point after 24 hours, Table 18
  MIC: 0.25 µg/mL (≈ 0.203 µM)
[3]; Streptococcus sp. Group D X66, Table 17
  MIC: 1 µg/mL (≈ 0.811 µM)
[3]; Streptococcus sp. Group D X66, end point after 24 hours, Table 18
  MIC: 0.25 µg/mL (≈ 0.203 µM)
Streptococcus pneumoniae; Streptococcus pneumoniae 2764, Table 11
  MIC: 0.25 µg/mL (≈ 0.203 µM)
Streptococcus pneumoniae; Streptococcus pneumoniae 6301, Table 11
  MIC: 0.25 µg/mL (≈ 0.203 µM)
Streptococcus pneumoniae; Streptococcus pneumoniae B1-438, end point after 24 hours, Table 18
  MIC: 0.25 µg/mL (≈ 0.203 µM)
Streptococcus pneumoniae; Streptococcus pneumoniae BI-343, Table 11
  MIC: 0.25 µg/mL (≈ 0.203 µM)
Streptococcus pneumoniae; Streptococcus pneumoniae Park I, Table 11
  MIC: 0.25 µg/mL (≈ 0.203 µM)
Streptococcus pneumoniae; Streptococcus pneumoniae Park I, Table 17
  MIC: 0.5 µg/mL (≈ 0.405 µM)
Streptococcus pneumoniae; Streptococcus pneumoniae Type 14, Table 11
  MIC: 0.25 µg/mL (≈ 0.203 µM)
[4]; Staphylococcus epidermidis 219, end point after 24 hours, Table 18
  MIC: 0.06 µg/mL (≈ 0.0486 µM)
[4]; Staphylococcus epidermidis 269, end point after 24 hours, Table 18
  MIC: 0.06 µg/mL (≈ 0.0486 µM)
[4]; Staphylococcus epidermidis 270, end point after 24 hours, Table 18
  MIC: 0.06 µg/mL (≈ 0.0486 µM)
[4]; Staphylococcus epidermidis 285, end point after 24 hours, Table 18
  MIC: 0.06 µg/mL (≈ 0.0486 µM)
[4]; Staphylococcus epidermidis Britton, Table 11
  MIC: 0.13 µg/mL (≈ 0.105 µM)
[4]; Staphylococcus epidermidis EPI2, Table 17
  MIC: 1 µg/mL (≈ 0.811 µM)
[4]; Staphylococcus epidermidis Litton, Table 11
  MIC: 0.13 µg/mL (≈ 0.105 µM)
[4]; Staphylococcus epidermidis Mencher, Table 11
  MIC: ≤ 0.06 µg/mL
[4]; Staphylococcus epidermidis Mobley, Table 11
  MIC: ≤ 0.06 µg/mL
